The target of the experiment is T1, human SSTR5 (Homo sapiens, UniProt P35346).
T1 construct: expressed in transfected cells
Nature of the experiment: Evaluation of human SSTR5 antagonist activity using intracellular cAMP concentration as index. It is filed as cell-based. The conditions noted are these: 1 μM test compound; CHO (dhfr-) cells stably expressing human SSTR5; 0.1 nM somatostatin 28, 0.3 μM forskolin; cAMP HTRF; read-out: Inhibition rate against SSTR5 at 1 μM. As to the method: Evaluation of Human SSTR5 Antagonist Activity Using Intracellular cAMP Concentration as Index
The intracellular cAMP concentration was measured using HTRF cAMP dynamic 2 kit (Cisbio Bioassays). Each test compound diluted with an assay buffer (HBSS (Invitrogen Corp.) containing 5 mM HEPES (pH 7.5) (Invitrogen Corp.), 0.1% fatty-acid free BSA (Sigma-Aldrich Corp.), and 500 μM IBMX (Wako Pure Chemical Industries, Ltd.)) was added at a concentration of 2 μL/well to a 384-well white plate (Greiner Bio-One Co., Ltd.) to give the final concentration of 1 μM. A frozen stock of CHO (dhfr-) cells stably expressing the human SSTR5 gene (Accession No. NM_001053) was thawed in a thermostat bath of 37° C. and suspended in a subculture medium (MEM alpha (Wako Pure Chemical Industries, Ltd.), 10% dialyzed serum (Gemini Bio-Products), and 50 μg/mL gentamicin (Invitrogen Corp.). After centrifugation of the cell suspension, the cells were resuspended in an assay buffer and added at a concentration of 2 μL/well (about 4,000 cells/well) to the plate. The compound and the cells were incubated for 15 minutes, and then, an assay buffer containing 0.1 nM (final concentration) somatostatin 28 (Toray Research Center) and 0.3 μM (final concentration) forskolin (Wako Pure Chemical Industries, Ltd.) was added thereto at a concentration of 2 μL/well, followed by incubation at room temperature for 30 minutes. cAMP-d2 and anti-cAMP-cryptate were each added thereto at a concentration of 3 μL/well. The plate was left standing at room temperature for 60 minutes. Then, the fluorescence resonance energy transfer (FRET) intensity was measured using Multi-label reader Envision (PerkinElmer). The FRET intensity of the wells supplemented with the test compound group was converted to a cAMP concentration using a calibration curve prepared from the FRET intensity of a well group containing an assay buffer supplemented with an arbitrary concentration of cAMP. The inhibitory activity of each compound was calculated according to the following expression: Inhibitory activity (%)=(C−B)/(A−B)×100 A: cAMP concentration calculated from the wells supplemented with 0.3 μM forskolin B: cAMP concentration calculated from the wells supplemented with 0.3 μM forskolin and 0.1 nM somatostatin 28 C: cAMP concentration calculated from the wells supplemented with 0.3 μM forskolin, 0.1 nM somatostatin 28, and 1 μM test compound
On the technique in general: Time-resolved FRET reads energy transfer from a long-lived donor to a nearby acceptor.

Each structure is given as a SMILES string.

T1 sequence (P35346 whole entry): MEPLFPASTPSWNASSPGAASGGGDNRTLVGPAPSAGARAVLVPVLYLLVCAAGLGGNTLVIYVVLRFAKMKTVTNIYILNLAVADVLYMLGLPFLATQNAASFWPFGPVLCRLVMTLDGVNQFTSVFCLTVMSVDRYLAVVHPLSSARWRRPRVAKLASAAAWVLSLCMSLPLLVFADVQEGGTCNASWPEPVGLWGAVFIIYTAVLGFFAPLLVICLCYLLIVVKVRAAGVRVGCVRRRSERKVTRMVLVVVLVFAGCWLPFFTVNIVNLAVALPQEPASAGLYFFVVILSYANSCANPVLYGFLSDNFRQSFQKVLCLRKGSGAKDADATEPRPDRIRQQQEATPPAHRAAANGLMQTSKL

For orientation: inhibition means the relative decrease from the control value, in per cent. For `CCOc1cc(CN2CCC(N3CCc4nc(C)c(C(=O)O)cc4C3=O)CC2)cc(C2CC2)c1-c1ccc(F)cc1` [Example 1, 6-(1-((2-Cyclopropyl-6-ethoxy-4′-fluorobiphenyl-4-yl)methyl)piperidin-4-yl)-2-methyl-5-oxo-5,6,7,8-tetrahydro-1,6-naphthyridine-3-carboxylic acid], the inhibition at 1 µM turned out to be 91%. Take `CCOc1cc(-c2ccc(F)cc2)c(C2CC2)cc1CN1CCC(N2CCc3nc(CC)c(C(=O)O)cc3C2=O)CC1` [Example 2, 6-(1-((2-Cyclopropyl-5-ethoxy-4′-fluorobiphenyl-4-yl)methyl)piperidin-4-yl)-2-ethyl-5-oxo-5,6,7,8-tetrahydro-1,6-naphthyridine-3-carboxylic acid]: the inhibition at 1 µM worked out at 86%. `CCOc1cc(-c2ccc(F)cc2)c(C2CC2)cc1CN1CCC(N2CCc3nc(C4CC4)c(C(=O)O)cc3C2=O)CC1` [Example 3, 2-Cyclopropyl-6-(1-((2-cyclopropyl-5-ethoxy-4′-fluorobiphenyl-4-yl)methyl)piperidin-4-yl)-5-oxo-5,6,7,8-tetrahydro-1,6-naphthyridine-3-carboxylic acid]: the inhibition at 1 µM stood at 115%. The figure for `CCOc1cc(-c2ccc(F)cc2)c(C2CC2)cc1CN1CCC(N2CCc3nc(C)c(C(=O)O)cc3C2=O)CC1` [Example 5, 6-(1-((2-Cyclopropyl-5-ethoxy-4′-fluorobiphenyl-4-yl)methyl)piperidin-4-yl)-2-methyl-5-oxo-5,6,7,8-tetrahydro-1,6-naphthyridine-3-carboxylic acid] is 132%; for `Cc1nc2c(cc1C(=O)O)C(=O)N(C1CCN(Cc3cc(C4CC4)c(-c4ccc(F)cc4)nc3OC(C)C)CC1)CC2` [Example 6, 6-(1-((5-Cyclopropyl-6-(4-fluorophenyl)-2-isopropoxypyridin-3-yl)methyl)piperidin-4-yl)-2-methyl-5-oxo-5,6,7,8-tetrahydro-1,6-naphthyridine-3-carboxylic acid] it is 88%. The figure for `Cc1nc2c(cc1C(=O)O)C(=O)N(C1CCN(Cc3cc(C4CC4)c(-c4ccc(F)cc4)cc3OC(C)C)CC1)CC2` [Example 7, 6-(1-((2-Cyclopropyl-4′-fluoro-5-isopropoxybiphenyl-4-yl)methyl)piperidin-4-yl)-2-methyl-5-oxo-5,6,7,8-tetrahydro-1,6-naphthyridine-3-carboxylic acid] is 88%; for `CCOc1cc(CN2CCC(N3CCc4nc(C)c(C(=O)O)cc4C3=O)CC2)cc(C2CC2)c1-c1ccc(F)c(F)c1` [Example 8, 6-(1-((2-Cyclopropyl-6-ethoxy-3′,4′-difluorobiphenyl-4-yl)methyl)piperidin-4-yl)-2-methyl-5-oxo-5,6,7,8-tetrahydro-1,6-naphthyridine-3-carboxylic acid] it is 97%; for `CCOc1cc(C2CCC2)c(C2CC2)cc1CN1CCC(N2CCc3ncc(C(=O)O)cc3C2=O)CC1` [Example 30, 6-(1-(4-Cyclobutyl-5-cyclopropyl-2-ethoxybenzyl)piperidin-4-yl)-5-oxo-5,6,7,8-tetrahydro-1,6-naphthyridine-3-carboxylic acid] it is 110%.

Consider `CCOc1cc(-c2ccc(F)cc2)c(C2CC2)cc1CN1CCC(N2CCc3ccc(C(=O)O)nc3C2=O)CC1` [Example 31, 7-(1-((2-Cyclopropyl-5-ethoxy-4′-fluorobiphenyl-4-yl)methyl)piperidin-4-yl)-8-oxo-5,6,7,8-tetrahydro-1,7-naphthyridine-2-carboxylic acid], for which the inhibition at 1 µM was 118%. The figure for `CCOc1nc(-c2ccc(F)cc2)c(C2CC2)cc1CN1CCC(N2CCc3nc(CC)c(C(=O)O)cc3C2=O)CC1` [Example 33, 6-(1-((5-Cyclopropyl-2-ethoxy-6-(4-fluorophenyl)pyridin-3-yl)methyl)piperidin-4-yl)-2-ethyl-5-oxo-5,6,7,8-tetrahydro-1,6-naphthyridine-3-carboxylic acid] is 123%; for `CCOc1cc(CN2CCC(N3CCc4ncc(C(=O)O)cc4C3=O)C2)cc(OCC)c1-c1ccc(F)cc1` (stereo not drawn) [Example 34, 6-(1-((2,6-Diethoxy-4′-fluorobiphenyl-4-yl)methyl)pyrrolidin-3-yl)-5-oxo-5,6,7,8-tetrahydro-1,6-naphthyridine-3-carboxylic acid] it is 102%; for `CCCc1nc2c(cc1C(=O)O)C(=O)N(C1CCN(Cc3cc(OCC)c(-c4ccc(F)cc4)c(C4CC4)c3)CC1)CC2` [Example 36, 6-(1-((2-Cyclopropyl-6-ethoxy-4′-fluorobiphenyl-4-yl)methyl)piperidin-4-yl)-5-oxo-2-propyl-5,6,7,8-tetrahydro-1,6-naphthyridine-3-carboxylic acid] it is 94%. The figure for `CCCc1nc2c(cc1C(=O)O)C(=O)N(C1CCN(Cc3cc(C4CC4)c(-c4ccc(F)cc4)cc3OC(C)C)CC1)CC2` [Example 37, 6-(1-((2-Cyclopropyl-4′-fluoro-5-isopropoxybiphenyl-4-yl)methyl)piperidin-4-yl)-5-oxo-2-propyl-5,6,7,8-tetrahydro-1,6-naphthyridine-3-carboxylic acid] is 97%. Turning to `CCCc1nc2c(cc1C(=O)O)C(=O)N(C1CCN(Cc3cc(OCC)c(-c4ccc(F)cc4)c(OCC)c3)CC1)CC2` [Example 38, 6-(1-((2,6-Diethoxy-4′-fluorobiphenyl-4-yl)methyl)piperidin-4-yl)-5-oxo-2-propyl-5,6,7,8-tetrahydro-1,6-naphthyridine-3-carboxylic acid], the inhibition at 1 µM worked out at 97%. The figure for `CCCc1nc2c(cc1C(=O)O)C(=O)N(C1CCN(Cc3cc(C4CC4)c(-c4ccc(F)c(F)c4)cc3OC(C)C)CC1)CC2` [Example 39, 6-(1-((2-Cyclopropyl-3′,4′-difluoro-5-isopropoxybiphenyl-4-yl)methyl)piperidin-4-yl)-5-oxo-2-propyl-5,6,7,8-tetrahydro-1,6-naphthyridine-3-carboxylic acid] is 112%; for `CCCc1nc2c(cc1C(=O)O)C(=O)N(C1CCN(Cc3cc(C4CC4)c(-c4ccc(F)cc4F)cc3OC(C)C)CC1)CC2` [Example 40, 6-(1-((2-Cyclopropyl-2′,4′-difluoro-5-isopropoxybiphenyl-4-yl)methyl)piperidin-4-yl)-5-oxo-2-propyl-5,6,7,8-tetrahydro-1,6-naphthyridine-3-carboxylic acid] it is 148%. As for `CCCc1nc2c(cc1C(=O)O)C(=O)N(C1CCN(Cc3cc(C4CC4)c(C4CCC4)cc3OC(C)C)CC1)CC2` [Example 41, 6-(1-(4-Cyclobutyl-5-cyclopropyl-2-isopropoxybenzyl)piperidin-4-yl)-5-oxo-2-propyl-5,6,7,8-tetrahydro-1,6-naphthyridine-3-carboxylic acid], the inhibition at 1 µM is 99%. On to `CCCc1nc2c(cc1C(=O)O)C(=O)N(C1CCN(Cc3cc(C4CC4)c(-c4ccc(F)cc4)cc3OC)CC1)CC2` [Example 42, 6-(1-((2-Cyclopropyl-4′-fluoro-5-methoxybiphenyl-4-yl)methyl)piperidin-4-yl)-5-oxo-2-propyl-5,6,7,8-tetrahydro-1,6-naphthyridine-3-carboxylic acid], for which the inhibition at 1 µM came out at 136%. As to `CCCc1nc2c(cc1C(=O)O)C(=O)N(C1CCN(Cc3cc(C4CC4)c(-c4ccc(F)c(F)c4)cc3OCC)CC1)CC2` [Example 43, 6-(1-((2-Cyclopropyl-5-ethoxy-3′,4′-difluorobiphenyl-4-yl)methyl)piperidin-4-yl)-5-oxo-2-propyl-5,6,7,8-tetrahydro-1,6-naphthyridine-3-carboxylic acid], the inhibition at 1 µM is 95%.

In the case of `CCc1nc2c(cc1C(=O)O)C(=O)N(C1CCN(Cc3cc(C4CC4)c(-c4ccc(F)cc4)cc3OC(C)C)CC1)CC2` [Example 44, 6-(1-((2-Cyclopropyl-4′-fluoro-5-isopropoxybiphenyl-4-yl)methyl)piperidin-4-yl)-2-ethyl-5-oxo-5,6,7,8-tetrahydro-1,6-naphthyridine-3-carboxylic acid], the inhibition at 1 µM worked out at 111%. The figure for `CCOc1cc(CN2CCC(N3CCc4nc(CC)c(C(=O)O)cc4C3=O)CC2)cc(C2CC2)c1-c1ccc(F)cc1` [Example 45, 6-(1-((2-Cyclopropyl-6-ethoxy-4′-fluorobiphenyl-4-yl)methyl)piperidin-4-yl)-2-ethyl-5-oxo-5,6,7,8-tetrahydro-1,6-naphthyridine-3-carboxylic acid] is 99%.

The values above are taken from US9751878B2, “Tetrahydronaphthyridine somatostatin receptor 5 antagonists” (Takeda Pharmaceutical Company Limited, priority 2013, dated 2017).
